# Patent US20100292188A1, “Compounds Comprising A Cyclobutoxy Group” (UCB PHARMA S.A., priority 2008, published 2010)
row,SMILES,melting point [°C]
1,"NC(=O)N1CCc2nc(-c3ccc(O[C@H]4C[C@H](N5CCCCC5)C4)cc3)sc2C1 [Compound 10, 2-{4-[(trans-3-piperidin-1-ylcyclobutyl)oxy]phenyl}-6,7-dihydro[1,3]thiazolo[5,4-c]pyridine-5(4H)-carboxamide]",199
2,"CC(C)Oc1c(N2CCc3nc(-c4ccc(O[C@H]5C[C@H](N6CCCCC6)C5)cc4)sc3C2)c(=O)c1=O [Compound 56, 3-isopropoxy-4-[2-{4-[(trans-3-piperidin-1-ylcyclobutyl)oxy]phenyl}-6,7-dihydro[1,3]thiazolo[5,4-c]pyridin-5(4H)-yl]cyclobut-3-ene-1,2-dione]",157 to 159
3,"O=C(CC(F)(F)F)N1CCc2nc(-c3ccc(O[C@H]4C[C@H](N5CCCCC5)C4)cc3)sc2C1 [Compound 33, 2-{4-[(trans-3-piperidin-1-ylcyclobutyl)oxy]phenyl}-5-(3,3,3-trifluoropropanoyl)-4,5,6,7-tetrahydro[1,3]thiazolo[5,4-c]pyridine]",167 to 168
4,"OC[C@@H](O)CN1CCc2nc(-c3ccc(O[C@H]4C[C@H](N5CCCCC5)C4)cc3)sc2C1 [Compound 16, (2S)-3-[2-{4-[(trans-3-piperidin-1-ylcyclobutyl)oxy]phenyl}-6,7-dihydro[1,3]thiazolo[5,4-c]pyridin-5(4H)-yl]propane-1,2-diol]",175
5,"NC(=O)CC(=O)N1CCc2sc(-c3ccc(O[C@H]4C[C@H](N5CCCCC5)C4)cc3)nc2C1 [Compound 65, 3-oxo-3-[2-{4-[(trans-3-piperidin-1-ylcyclobutyl)oxy]phenyl}-6,7-dihydro[1,3]thiazolo[4,5-c]pyridin-5(4H)-yl]propanamide]",183.4
6,"O=c1c(O)c(N2CCc3nc(-c4ccc(O[C@H]5C[C@H](N6CCCCC6)C5)cc4)sc3C2)c1=O [Compound 55, 3-hydroxy-4-[2-{4-[(trans-3-piperidin-1-ylcyclobutyl)oxy]phenyl}-6,7-dihydro[1,3]thiazolo[5,4-c]pyridin-5(4H)-yl]cyclobut-3-ene-1,2-dione]",> 220
7,"OCC(O)CN1CCc2nc(-c3ccc(O[C@H]4C[C@H](N5CCCCC5)C4)cc3)sc2C1 (stereo partly drawn) [Compound 15, 3-[2-{4-[(trans-3-piperidin-1-ylcyclobutyl)oxy]phenyl}-6,7-dihydro[1,3]thiazolo[5,4-c]pyridin-5(4H)-yl]propane-1,2-diol]",169
8,"CC(=O)N1CCCc2sc(-c3ccc(O[C@H]4C[C@H](N5CCCCC5)C4)cc3)nc21 [Compound 30, 4-acetyl-2-{4-[(trans-3-piperidin-1-ylcyclobutyl)oxy]phenyl}-4,5,6,7-tetrahydro[1,3]thiazolo[4,5-b]pyridine]",146
9,"O=C(O)COCC(=O)N1CCc2nc(-c3ccc(O[C@H]4C[C@H](N5CCCCC5)C4)cc3)sc2C1 [Compound 43, {2-oxo-2-[2-{4-[(trans-3-piperidin-1-ylcyclobutyl)oxy]phenyl}-6,7-dihydro[1,3]thiazolo[5,4-c]pyridin-5(4H)-yl]ethoxy}acetic acid]",> 200
10,"NC(=O)C1(C(=O)N2CCc3nc(-c4ccc(O[C@H]5C[C@H](N6CCCCC6)C5)cc4)sc3C2)CC1 [Compound 47, 1-{[2-{4-[(trans-3-piperidin-1-ylcyclobutyl)oxy]phenyl}-6,7-dihydro[1,3]thiazolo[5,4-c]pyridin-5(4H)-yl]carbonyl}cyclopropanecarboxamide]",199 to 200
11,"c1cc2nc(-c3ccc(O[C@H]4C[C@H](N5CCCCC5)C4)cc3)[nH]c2cn1 [Compound 69, 2-{4-[(trans-3-piperidin-1-ylcyclobutyl)oxy]phenyl}-3H-imidazo[4,5-c]pyridine]",165 to 172
12,"O=C(C(O)CO)N1CCc2nc(-c3ccc(O[C@H]4C[C@H](N5CCCCC5)C4)cc3)sc2C1 (stereo partly drawn) [Compound 54, 3-oxo-3-[2-{4-[(trans-3-piperidin-1-ylcyclobutyl)oxy]phenyl}-6,7-dihydro[1,3]thiazolo[5,4-c]pyridin-5(4H)-yl]propane-1,2-diol]",167 to 168
13,"NCC(=O)N1CCc2nc(-c3ccc(O[C@H]4C[C@H](N5CCCCC5)C4)cc3)sc2C1 [Compound 9, 2-oxo-2-[2-{4-[(trans-3-piperidin-1-ylcyclobutyl)oxy]phenyl}-6,7-dihydro[1,3]thiazolo[5,4-c]pyridin-5(4H)-yl]ethanamine]",199
14,"CCNC(=O)N1CCc2nc(-c3ccc(O[C@H]4C[C@H](N5CCCCC5)C4)cc3)sc2C1 [Compound 21, N-ethyl-2-{4-[(trans-3-piperidin-1-ylcyclobutyl)oxy]phenyl}-6,7-dihydro[1,3]thiazolo[5,4-c]pyridine-5(4H)-carboxamide]",200
